Data from patent US5807541A, “NSAID/fluoride periodontal compositions and methods” (Sepracor, Inc., priority 1996, dated 1998).
Like-named read-outs stand apart in the source and are kept apart here.

Legend:
[1] = test system: PGE2 secretion in human promyelocytic leukemia cells (HL-60 cells); assay: PGE2 secretion in human promyelocytic leukemia (HL-60) cells (A23187-induced), fluoride and NSAIDs alone or combined; conditions: for % Inhibition of A23187-induced PGE2 secretion / % stimulation of A23187-induced PGE2 secretion: mean of two determinations; for % inhibition of PGE2 / % stimulation of PGE2 (value in parentheses): Table II;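 for all read-outs here: fluoride given as NaF, each condition run in duplicate, signals corrected for background and referenced to control, IC50 obtained by nonlinear regression Hill fitting of the curve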
[2] = test system: prostaglandin production in endothelial cells; conditions: under certain circumstances; cited from earlier work
[3] = test system: dental caries; conditions: professionally applied topical fluoride, dentifrices and mouthwashes; high risk patients; cited from earlier work
[4] = test system: G proteins; conditions: under certain circumstances; cited from earlier work
[5] = Homo sapiens, HL-60, read-out: IC50, inhibition of PGE2 secretion, summary of Tables III and IV
[6] = ketoprofen enantiomer 10^-7 M + F 0.05%
[7] = ketoprofen enantiomer 10^-7 M + F 0.1%
[8] = ketoprofen enantiomer 10^-7 M + F 0.5%
[9] = ketoprofen enantiomer 10^-7 M, F 0%
[10] = ketoprofen enantiomer 10^-8 M + F 0.05%
[11] = ketoprofen enantiomer 10^-8 M + F 0.1%
[12] = ketoprofen enantiomer 10^-8 M + F 0.5%
[13] = ketoprofen enantiomer 10^-8 M, F 0%
[14] = ketoprofen enantiomer 10^-9 M + F 0.05%
[15] = ketoprofen enantiomer 10^-9 M + F 0.1%
[16] = ketoprofen enantiomer 10^-9 M + F 0.5%
[17] = ketoprofen enantiomer 10^-9 M, F 0%
[18] = ketoprofen enantiomer 10^-10 M + F 0.05%, 0.0001 µM
[19] = ketoprofen enantiomer 10^-10 M + F 0.05%
[20] = ketoprofen enantiomer 10^-10 M + F 0.1%
[21] = ketoprofen enantiomer 10^-10 M + F 0.5%
[22] = ketoprofen enantiomer 10^-10 M, F 0%
[23] = Homo sapiens, HL-60, read-out: % inhibition of PGE2

Compound: C[C@H](C(=O)O)c1cccc(C(=O)c2ccccc2)c1 [(S)-Ketoprofen]
- IC50 [1, 5]: ~0.4 nM
- relative potency, inhibition of PGE2 secretion (in words) ([1]; S- vs R-ketoprofen): more potent than R-ketoprofen
- % Inhibition of A23187-induced PGE2 secretion [1, 6]: 95%
- % Inhibition of A23187-induced PGE2 secretion [1, 7]: 98%
- % Inhibition of A23187-induced PGE2 secretion [1, 8]: 99%
- % Inhibition of A23187-induced PGE2 secretion [1, 9]: 96%
- % Inhibition of A23187-induced PGE2 secretion [1, 10]: 82%
- % Inhibition of A23187-induced PGE2 secretion [1, 11]: 89%
- % Inhibition of A23187-induced PGE2 secretion [1, 12]: 98%
- % Inhibition of A23187-induced PGE2 secretion [1, 13]: 89%
- % Inhibition of A23187-induced PGE2 secretion [1, 14]: 35%
- % Inhibition of A23187-induced PGE2 secretion [1, 15]: 54%
- % Inhibition of A23187-induced PGE2 secretion [1, 16]: 100%
- % Inhibition of A23187-induced PGE2 secretion [1, 17]: 70%
- stimulation factor, A23187-induced PGE2 secretion [1, 18]: 1.22 ×
- % stimulation of A23187-induced PGE2 secretion [1, 19]: 27%
- % Inhibition of A23187-induced PGE2 secretion [1, 20]: 18%
- % Inhibition of A23187-induced PGE2 secretion [1, 21]: 100%
- % Inhibition of A23187-induced PGE2 secretion [1, 22]: 10%

Compound: [F-].[Na+] [fluoride, sodium fluoride]
- prostaglandin production in endothelial cells (in words) [2]: induce prostaglandin production
- prevention of dental caries (in words) [3]: effective in preventing dental caries among high risk patients
- activation of G proteins (in words) [4]: activate G proteins
- PGE2 secretion, % Control, 1st Value ([1]; F 0.0001% (52 μM)): 80.1%
- PGE2 secretion, % Control, 2nd value ([1]; F 0.0001% (52 μM)): 87.4%
- PGE2 secretion, % Control, mean ([1]; F 0.0001% (52 μM)): 83.7%
- PGE2 secretion, % Control, 1st Value ([1]; F 0.001% (520 μM)): 94.1%
- PGE2 secretion, % Control, 2nd value ([1]; F 0.001% (520 μM)): 74.9%
- PGE2 secretion, % Control, mean ([1]; F 0.001% (520 μM)): 84.5%
- PGE2 secretion, % Control, 1st Value ([1]; F 0.01% (5.2 mM)): 117.7%
- PGE2 secretion, % Control, 2nd value ([1]; F 0.01% (5.2 mM)): 99.8%
- PGE2 secretion, % Control, mean ([1]; F 0.01% (5.2 mM)): 108.7%
- PGE2 secretion, % Control, 1st Value ([1]; F 0.02% (10.4 mM)): 188.7%
- PGE2 secretion, % Control, 2nd value ([1]; F 0.02% (10.4 mM)): 208.8%
- PGE2 secretion, % Control, mean ([1]; F 0.02% (10.4 mM)): 198.8%
- PGE2 secretion, % Control, 1st Value ([1]; F 0.05% (26 mM)): 157.9%
- PGE2 secretion, % Control, 2nd value ([1]; F 0.05% (26 mM)): 177.3%
- PGE2 secretion, % Control, mean ([1]; F 0.05% (26 mM)): 167.6%
- stimulation factor, A23187-induced PGE2 secretion ([1]; F 0.05%, ketoprofen 0): 1.16 ×
- % stimulation of A23187-induced PGE2 secretion ([1]; F 0.05%, ketoprofen 0): 16%
- PGE2 secretion, % Control, 1st Value ([1]; F 0.07% (36 mM)): 142.1%
- PGE2 secretion, % Control, 2nd value ([1]; F 0.07% (36 mM)): 142.1%
- PGE2 secretion, % Control, mean ([1]; F 0.07% (36 mM)): 142.1%
- PGE2 secretion, % Control, 1st Value ([1]; F 0.1% (52 mM)): 115.1%
- PGE2 secretion, % Control, 2nd value ([1]; F 0.1% (52 mM)): 112.6%
- PGE2 secretion, % Control, mean ([1]; F 0.1% (52 mM)): 113.9%
- % Inhibition of A23187-induced PGE2 secretion ([1]; F 0.1%, ketoprofen 0): 26%
- PGE2 secretion, % Control, 1st Value ([1]; F 0.2% (104 mM)): 5.2%
- PGE2 secretion, % Control, 2nd value ([1]; F 0.2% (104 mM)): 8.9%
- PGE2 secretion, % Control, mean ([1]; F 0.2% (104 mM)): 7.0%
- PGE2 secretion, % Control, 1st Value ([1]; F 0.3% (156 mM)): 4.9%
- PGE2 secretion, % Control, 2nd value ([1]; F 0.3% (156 mM)): 3.1%
- PGE2 secretion, % Control, mean ([1]; F 0.3% (156 mM)): 4.0%
- PGE2 secretion, % Control, 1st Value ([1]; F 0.5% (260 mM)): 0.5%
- PGE2 secretion, % Control, 2nd value ([1]; F 0.5% (260 mM)): 1.7%
- PGE2 secretion, % Control, mean ([1]; F 0.5% (260 mM)): 1.1%
- % Inhibition of A23187-induced PGE2 secretion ([1]; F 0.5%, ketoprofen 0): 96%
- production of prostaglandins (in words) ([1]; concentration range employed for the prevention of dental caries): stimulates the production of prostaglandins
- maximum stimulation of PGE2 secretion ([1]; fluoride 0.02%): 99%
- effect of fluoride on the inhibitory effects of R- and S-ketoprofen (in words) ([1]; fluoride 26 mM): decrease of the inhibitory effects of R- and S-ketoprofen
- effect of fluoride in combination with R- and S-ketoprofen (in words) ([1]; fluoride 260 mM): amplifies its inhibitory effects
- effect on PGE2 secretion (in words) ([1]; fluoride above 0.2%): completely inhibits PGE2 secretion
- stimulation of PGE2 production ([1]; fluoride alone, 26 mM (0.05%)): 108%
- inhibition of PGE2 production ([1]; fluoride alone, 52 mM): 12%
- inhibition of PGE2 production ([1]; fluoride alone, 260 mM): 92%
- effect on stimulated PGE2 secretion (in words) ([1]; fluoride below about 5 mM (below about 0.01% w/v)): no significant effect
- effect on PGE2 secretion (in words) ([1]; fluoride from 0.0001 to 0.01%): no effect
- effect on PGE2 secretion (in words) ([1]; fluoride from 0.02 to 0.07%): induces stimulation
- effect on PGE2 secretion (in words) ([1]; fluoride ion above about 50 mM (above about 0.1% w/v)): inhibitory to PGE2 secretion
- peak production of PGE2, % of control ([1]; fluoride ion at about 10 mM): 200%
- production of PGE2 (in words) ([1]; fluoride ion between about 5 and about 50 mM): stimulates the production of prostaglandin E2

Compound: COc1ccc2c(c1)c(CC(=O)O)c(C)n2C(=O)c1ccc(Cl)cc1 [indomethacin]
- IC50 ([1]; Homo sapiens, HL-60, read-out: IC50, A23187-induced PGE2 secretion, in the absence of fluoride): 0.92 nM

Compound: C[C@@H](C(=O)O)c1cccc(C(=O)c2ccccc2)c1 [(R)-Ketoprofen]
- IC50 [1, 5]: ~100 nM
- % Inhibition of A23187-induced PGE2 secretion [1, 6]: 47%
- % Inhibition of A23187-induced PGE2 secretion [1, 7]: 75%
- % Inhibition of A23187-induced PGE2 secretion [1, 8]: 100%
- % Inhibition of A23187-induced PGE2 secretion [1, 9]: 81%
- % Inhibition of A23187-induced PGE2 secretion [1, 10]: 5%
- % Inhibition of A23187-induced PGE2 secretion [1, 11]: 32%
- % Inhibition of A23187-induced PGE2 secretion [1, 12]: 99%
- % Inhibition of A23187-induced PGE2 secretion [1, 13]: 39%
- stimulation factor, A23187-induced PGE2 secretion ([1]; ketoprofen enantiomer 10^-9 M + F 0.05%, 0.001 µM): 1.14 ×
- % stimulation of A23187-induced PGE2 secretion [1, 14]: 14%
- % Inhibition of A23187-induced PGE2 secretion [1, 15]: 2%
- % Inhibition of A23187-induced PGE2 secretion [1, 16]: 99%
- % Inhibition of A23187-induced PGE2 secretion [1, 17]: 6%
- stimulation factor, A23187-induced PGE2 secretion [1, 18]: 1.27 ×
- % stimulation of A23187-induced PGE2 secretion [1, 19]: 27%
- % Inhibition of A23187-induced PGE2 secretion [1, 20]: 23%
- % Inhibition of A23187-induced PGE2 secretion [1, 21]: 98%
- % Inhibition of A23187-induced PGE2 secretion [1, 22]: 14%

Compound: CC(C(=O)O)c1cccc(C(=O)c2ccccc2)c1 (racemic) [ketoprofen]
- inhibition of PGE2 (in words) ([1]; 10^-10 M ketoprofen alone): undetected
- PGE2 production (in words) ([1]; 10^-10 M ketoprofen at 260 mM fluoride): totally inhibited
- inhibition at 0.001 µM [1, 23]: 40%
- inhibition at 0.01 µM [1, 23]: 63%
- inhibition at 0.1 µM [1, 23]: 82%
- IC50 ([1]; Homo sapiens, HL-60, read-out: IC50, PGE2 production, racemic ketoprofen + 52 mM fluoride): 11.8 nM
- IC50 ([1]; Homo sapiens, HL-60, read-out: IC50, PGE2 production, racemic ketoprofen alone (no F)): 2.8 nM
- inhibition at 0.0001 µM ([1]; Homo sapiens, HL-60, read-out: inhibition of PGE2 levels): 26%
- % inhibition of PGE2 ([1]; racemic ketoprofen 10^-7 M + fluoride 26 mM): 66%
- % inhibition of PGE2 ([1]; racemic ketoprofen 10^-7 M + fluoride 52 mM): 85%
- % inhibition of PGE2 ([1]; racemic ketoprofen 10^-7 M + fluoride 260 mM): 98%
- % inhibition of PGE2 ([1]; racemic ketoprofen 10^-8 M + fluoride 52 mM): 46%
- % inhibition of PGE2 ([1]; racemic ketoprofen 10^-8 M + fluoride 260 mM): 97%
- % stimulation of PGE2 (value in parentheses) ([1]; racemic ketoprofen 10^-9 M + fluoride 26 mM): 125%
- % inhibition of PGE2 ([1]; racemic ketoprofen 10^-9 M + fluoride 52 mM): 11%
- % inhibition of PGE2 ([1]; racemic ketoprofen 10^-9 M + fluoride 260 mM): 101%
- % stimulation of PGE2 (value in parentheses) ([1]; racemic ketoprofen 10^-10 M + fluoride 26 mM): 125%
- % inhibition of PGE2 ([1]; racemic ketoprofen 10^-10 M + fluoride 260 mM): 102%
- increase of IC50 for ketoprofen by fluoride ([1]; fluoride 0.1% (52 mM) vs ketoprofen alone): approximately 4 fold
- stimulation induced by F^- (in words) ([1]; highest concentration of ketoprofen (10^-7)): overcome
